Non-standard residues stand in square brackets, D forms with d. No end group written: not given here. Cit = NC(=O)NCCC[C@H](N)C(=O)O
System: autoantibodies against cit-4 (anti-citrullinated SETDB1 antibody)
Assay: indirect ELISA of autoantibodies against biotin-conjugated citrullinated short polypeptides in serum
Format: binding, human
Experimental: The autoantibody expression levels of the citrulline markers were detected using an indirect ELISA method. In short, biotin-conjugated short polypeptides were first coated onto PABC plates at a concentration of 50 ng/well. After coating, serum from 24 rheumatoid arthritis (RA) patients and 24 healthy subjects (HC) were diluted 10-fold as primary antibodies and incubated for 30 minutes. HRP-labeled goat anti-human IgG (GAH-HRP) was used as secondary antibody, incubation was performed for 30 minutes, and color development and reading were finally carried out.
The expression level of citrulline marker autoantibodies in patients with rheumatoid arthritis was detected using an indirect ELISA method (see Example 1 for details). In addition, anti-citrullinated peptide antibody (CCP2) was used as a control. […]
The cit-4 antibody level was detected in a CCP2-negative patient population using an indirect ELISA method (see Example 1 for details).
The levels of citrullinated SETDB1 autoantibodies in the serum of patients with different autoimmune diseases (RA rheumatoid arthritis, SLE systemic lupus erythematosus, PSS primary Sjögren's syndrome, and SSc scleroderma) were detected using an indirect ELISA method (see Example 1 for details). […]

NPLLVPLLYDFXXMTAXXXVNXK (NPLLVPLLYDF[Cit][Cit]MTA[Cit][Cit][Cit]VN[Cit]K; also: conjugated with biotin) [cit-4]
level of autoantibodies in rheumatoid arthritis (Example 1, Fig. 1A, serum of 24 RA patients vs 24 healthy subjects (HC), diluted 10-fold, peptide coated 50 ng/well, GAH-HRP secondary antibody): significantly elevated | level of citrullinated SETDB1 autoantibodies (Example 4, Fig. 4A, serum of patients with different autoimmune diseases (RA, SLE, PSS, SSc)): the highest in rheumatoid arthritis

From patent EP4759821A1, “CITRULLINATED SETDB1 POLYPEPTIDE AND USE THEREOF IN DIAGNOSIS OF RHEUMATOID ARTHRITIS” (Xiamen University, priority 2023, dated 2025)
